# Measured values taken from patent publication US8492578B2, “Compounds useful in therapeutic and cosmetic methods” (Photoderma SA, priority 2007, dated 2013).
# “Also recorded” adds a separate entry of the source. Like-named read-outs stand apart in the source and are kept apart here.
# Assays:
# [1] = tested on: stratum corneum; assay: PpIX fluorescence on intact skin vs skin with stratum corneum removed (permeability through stratum corneum); assay type: in vivo, human; conditions: for Fluoresence epidermis: Cold cream formulation, 3 hours after topical administration; for increase of fluorescence upon removal of the stratum corneum: SC removed vs intact skin
# Description: Permeability of compounds of the invention through the stratum corneum is assessed by measurements of fluorescence of PpIX. The expression “PpIX”, for the purpose of the present specification, stands for PpIX as reported in the literature and other natural porphyrins producing a fluorescent signal following illumination with suitable light. Permeability of the compounds of the present invention is determined by comparing PpIX-induced fluorescence of compounds of the invention applied on the surface of intact skin with fluorescence induced by the same compounds applied on skin from which the stratum corneum has been removed.
# The stratum corneum was removed by dry shaving with a razor blade (BIC Classic 1 lame). The lame is gently swept 8 times over the skin without using water, razor foam or any other lubricant.
# Formulations comprising compounds of the invention and controls are administered topically on the forearm or the leg using the Tegaderm™ transparent dressing. This dressing enables the transport of water and oxygen according to the specifications of the manufacturer. This dressing was removed and the remaining formulation cleaned with water just before the measurements.
# A fluorescence imaging system illustrated in FIG. IX of WO 03/041673 is used to assess the extent and level of PpIX production in “macroscopic” samples (parts of the human body such as: forearm, leg, back, etc.). The experimental equipment and descriptions, as well as the ALA-DGME compounds disclosed therein are expressly incorporated herein by reference. As the goal is to assess the relative level of PpIX, red light at 635 nm is chosen as PpIX fluorescence excitation wavelength. It is indeed well known that red light penetrates deeper in the cutaneous tissues than green and violet light, the later two wavelengths corresponding to larger PpIX absorption peaks (see the PpIX fluorescence excitation and emission spectra presented on the right side in FIG. IX of WO 03/041673).
# As presented in the schematic diagram presented in FIG. IX of WO 03/041673, this fluorescence imaging system involves a modified 300 W D-light source 1 (Xe arc lamp from Storz, Tuttlingen, Germany) equipped with a red bandpass filter (635 nm, 20 nm FWHM; Chroma, USA). This fluorescence excitation light is coupled in a Storz 4 mm diameter light guide 2. The output of this light guide is imaged on the tissue sample 3 with a projection objective 4 (Nikon, Japan; A F Nikkor; 1:1.4 D/50 mm) to generate a homogenous spot of 2.5 cm in diameter with an irradiance of 2 mW/cm^2 at 635 nm. The distance between this projection objective 4 and the sample 3 is 25 cm. Therefore, the light beam illuminating the sample can be considered as parallel. The fluorescence is collected by another objective 5 (Fujinon, Japan; TV zoom lens; 1:1.2/12.5-75 mm; Type H6X12.5R-MD3) through a longpass filter 6 (Schott, Germany; RG665) and the image detected by a scientific CCD camera (752×582 pixels CF 8/1 Kappa, Gleichen, Germany) equipped 7 with an image intensifier (Proxifier BV 256-2FcZ-CH, Proxitronic, Bensheim, Germany). The images are captured by the 8-bits camera frame grabber and saved on the computer 8 with the “Kappa Imagebase-control” software. Image treatment is carried out using the IPLab imaging software. The spatial resolution of the complete setup has been measured with an USAF resolution target and the value we obtained in the sample plan is 3 lp/mm, the size of the image detected by the camera being 3×4 cm^2.
# A reference sample is been designed to enable a comparison of the relative fluorescence brightness between samples investigated at different times. This reference consists of a ruby disk (diameter: 12 mm; thickness: 1.02 mm; Type 8Sp3, Hans Stettler S A, Lyss, Switzerland) covered with a neutral density filter (T=2.27%) so that the signal obtained with this reference sample corresponds to the typical tissue fluorescence detected in our conditions. The images are analyzed using the NIH image software. […]
# [2] = tested on: hair follicles; assay: Fluorescence imaging of skin after hair removal (selectivity for hair follicle); assay type: in vivo, human; conditions: for distribution of fluorescence on skin: 20 wt. % formulation, applied after epilation
# Description: FIGS. 1-10 are fluorescence images of human forearm or leg skin areas of 2.5 cm in diameter, the pictures being taken three hours after administration of different photosensitizer precursors under variable experimental conditions.
# FIGS. 1A-B are fluorescence photographs of human skin to which compounds of the invention were applied. A formulation containing phenylalanin-ALA-amide (compound 1) at 80 wt. % was topically applied to the skin and pictures were taken 3 hours following administration. In FIG. 1A, skin was not pre-treated and fluorescence was measured with 20 milliseconds (ms) exposure time. In FIG. 1B, hair was mechanically removed by wax-epilation before administration of the formulation and fluorescence was measured with 10 milliseconds (ms) exposure time.
# Formulations comprising compounds of the invention and controls are administered topically on the forearm or the leg using the Tegaderm™ transparent dressing. This dressing enables the transport of water and oxygen according to the specifications of the manufacturer. […]
# A fluorescence imaging system illustrated in FIG. IX of WO 03/041673 is used to assess the extent and level of PpIX production in “macroscopic” samples (parts of the human body such as: forearm, leg, back, etc.). […] As the goal is to assess the relative level of PpIX, red light at 635 nm is chosen as PpIX fluorescence excitation wavelength. It is indeed well known that red light penetrates deeper in the cutaneous tissues than green and violet light, the later two wavelengths corresponding to larger PpIX absorption peaks (see the PpIX fluorescence excitation and emission spectra presented on the right side in FIG. IX of WO 03/041673).
# As presented in the schematic diagram presented in FIG. IX of WO 03/041673, this fluorescence imaging system involves a modified 300 W D-light source 1 (Xe arc lamp from Storz, Tuttlingen, Germany) equipped with a red bandpass filter (635 nm, 20 nm FWHM; Chroma, USA). This fluorescence excitation light is coupled in a Storz 4 mm diameter light guide 2. […]
# [3] = literature reports and Metvix package leaflet; cited from earlier work
# [4] = tested on: Propionobacterium acnes; assay: Photodestruction of P. acnes immediately after PDT; assay type: in vivo, human; conditions: face of a volunteer
# From the text: Immediately after illumination, the bacteria present on the administration zone are collected by immersion in a collection buffer allowing bacteria to detach and survive in suspension. Collection samples are inoculated, after suitable dilution, on agar plates, which are selective for p. acnes. CFU (Colony Forming Units) are counted after 5 days of growth on selective medium.
# [5] = tested on: Pytirosporum ovale; assay: Photodestruction of the yeast P. ovale 24 hours after PDT; assay type: in vivo, human; conditions: 5 wt. % in Cold cream; 3 hours, then 5-15 J/cm^2 red light; 24 hours after light exposure
# Description: 24 hours after the end of the light exposure, scales are collected using a patch-strip method (D-Squame. Cuderm Corp. Dallas. US) and P. ovale can be counted under fluorescence microscope using a fluorochrome which is selective for this type of yeast (Fungiqual A. Kandern. D E).
# [6] = tested on: skin area affected with seborrheic dermatitis; assay: Cosmetic PDT treatment of seborrheic dermatitis; assay type: in vivo, human; conditions: 5% in Cold cream
# [7] = tested on: sebaceous gland; assay: Microscopic fluorescence image of tissue sample; conditions: formulation comprising 20 wt. %
# [8] = tested on: psoriatic plaque
# Description: ALA-DGME 5% is prepared in Cold cream as in the previous example. 50 mg of 5% ALA-DGME in Cold cream are applied to the psoriatic plaque. 3 hours later, the zone which received ALA-DGME is exposed to 10-30 J/cm^2 of red light. The treatment is repeated 6 times with a 2 weeks interval.
# [9] = skin treatment: No (intact skin)
# [10] = skin treatment: SC removed by dry shaving
# [11] = fluorescence on intact skin relative to skin with SC removed
Compound,"Fluoresence epidermis [1, 9]","Fluoresence epidermis [1, 10]","Penetration through epidermis (%) [1, 11]",other results
"NCC(=O)CCC(=O)O [ALA, 5-aminolevulinic acid, reference compound]",31 arbitrary relative units,52 arbitrary relative units,–,Penetration through epidermis (%) ([1]; human): 59.6%; distribution of fluorescence on skin [2]: fluorescence is non-specific and uniformly distributed over the entire skin area; allergenic potential [3]: has not demonstrated such an allergenic potential
"CCOCCOCCOC(=O)CCC(=O)CN [ALA-DGME, diethylene-glycol monoethyl ether ester of ALA]",20 arbitrary relative units,57 arbitrary relative units,35.1%,"distribution of fluorescence on skin [2]: fluorescence is discretely associated to specific small spots; adverse reaction on the skin ([4]; 5% in Cold cream plus red light): No adverse reaction was observed; reduction in Propionobacerium acnes counts (CFU) ([4]; 5% in Cold cream, 3 hours, then 5-15 J/cm^2 red light, immediately after illumination): suitable to kill microorganism present on the skin; also recorded: substantial reduction of bacterial counts; reduction in Pytirosporum ovale counts [5]: substantial reduction of yeast counts; side effects to the surrounding skin ([6]; 24 hours after PDT): no side effects to the surrounding skin; skin reaction after PDT ([6]; 24 hours after PDT, 5-15 J/cm^2 red light): slight redness; selectivity of fluorescence for affected skin ([6]; topically applied on skin with seborrheic dermatitis, 3 hours): accumulated specifically in the skin area affected with SD; also recorded: only affected skin area shows red fluorescence; fluorescence in tissue sample (microscopic image) [7]: fluorescence in sebaceous gland; psoriasis plaque after several PDT treatments ([8]; 5% in Cold cream, 10-30 J/cm^2 red light, repeated 6 times with 2 weeks interval): partial clearance; accumulation of photosensitizer in psoriasis lesions (red fluorescence) ([8]; 5% in Cold cream, 3 hours): accumulated specifically in the psoriasis lesions; side effects to the surrounding skin ([8]; after several PDT treatments, 5% in Cold cream): no side effects to the surrounding skin; selectivity of fluorescence for psoriasis plaque ([8]; formulation comprising 20 wt. % (figure legend)): red fluorescence covering the psoriasis plaque solely"
"NCC(=O)CCC(=O)NC(Cc1ccccc1)C(=O)O (stereo not shown) [Compound 1, Phenylalanine-ALA-amide]",–,–,–,"fluorescence at positions of hair follicles ([2]; 80 wt. % formulation, hair removed by wax-epilation, 3 hours after administration, 10 ms exposure): spots of high fluorescence"
"NCC(=O)CCC(=O)Oc1ccc(CC(N)C(=O)O)cc1 (stereo not shown) [Compound 2, Tyrosine-ALA-ester]",0 arbitrary relative units,114 arbitrary relative units,–,–
"CC(C)CCCC(C)C1CCC2C3CC=C4CC(OC(=O)CCC(=O)CN)CCC4(C)C3CCC12C (stereo not shown) [Compound 6, ALA-Cholesteryl-ester]",1 arbitrary relative units,25 arbitrary relative units,–,increase of fluorescence upon removal of the stratum corneum [1]: 25 fold; Penetration through epidermis (%) ([1]; human): 4%
"NCC(=O)CCC(=O)O[C@H]1O[C@H](CO)[C@@H](O)[C@H](O)[C@H]1O [Compound 11, 1′-α-D-Glucose-ALA-ester]",0 arbitrary relative units,12 arbitrary relative units,0%,–
"NCC(=O)CCC(=O)OCC(O)C1OC(=O)C(O)=C1O (stereo not shown) [Compound 12, ALA-ascorbate-ester]",4 arbitrary relative units,20 arbitrary relative units,–,–
"CCCCCCOC(=O)CCC(=O)CN [Hexyl-ALA-ester, reference compound]",37 arbitrary relative units,88 arbitrary relative units,–,Penetration through epidermis (%) [1]: 42%
ALA-Cholesterylhexyl-ester [Compound 5],7 arbitrary relative units,94 arbitrary relative units,7.44%,–
ALA-ethyl-ester-ALA [Compound 8],30 arbitrary relative units,225 arbitrary relative units,13.3%,"increase of fluorescence upon removal of the stratum corneum [1]: 7.5 fold; Penetration through epidermis (%) ([1]; fluorescence on intact skin relative to skin with SC removed, listed as compound 8): 13.3%"
Phloroglucinol-tri-ALA-ester [Compound 7],30 arbitrary relative units,187 arbitrary relative units,16%,–
